Measured values: patent US11447466B2, “Substituted indole compounds useful as inhibitors of TLR7/8/9” (BRISTOL-MYERS SQUIBB COMPANY, priority 2017, dated 2022)

Experiments:
Assay type in all cases: cell-based
human TLR7 = molecular target: T1, human TLR7 (Homo sapiens, UniProt Q9NYK1); assay: TLR7 inhibition reporter assay (HEK-Blue SEAP reporter, gardiquimod stimulation); details: HEK-Blue cells overexpressing human TLR7, SEAP reporter, gardiquimod 7.5 μM, 22 hour incubation
T1 construct: host or cells: HEK-Blue cells
T1 sequence (Q9NYK1 27-1049): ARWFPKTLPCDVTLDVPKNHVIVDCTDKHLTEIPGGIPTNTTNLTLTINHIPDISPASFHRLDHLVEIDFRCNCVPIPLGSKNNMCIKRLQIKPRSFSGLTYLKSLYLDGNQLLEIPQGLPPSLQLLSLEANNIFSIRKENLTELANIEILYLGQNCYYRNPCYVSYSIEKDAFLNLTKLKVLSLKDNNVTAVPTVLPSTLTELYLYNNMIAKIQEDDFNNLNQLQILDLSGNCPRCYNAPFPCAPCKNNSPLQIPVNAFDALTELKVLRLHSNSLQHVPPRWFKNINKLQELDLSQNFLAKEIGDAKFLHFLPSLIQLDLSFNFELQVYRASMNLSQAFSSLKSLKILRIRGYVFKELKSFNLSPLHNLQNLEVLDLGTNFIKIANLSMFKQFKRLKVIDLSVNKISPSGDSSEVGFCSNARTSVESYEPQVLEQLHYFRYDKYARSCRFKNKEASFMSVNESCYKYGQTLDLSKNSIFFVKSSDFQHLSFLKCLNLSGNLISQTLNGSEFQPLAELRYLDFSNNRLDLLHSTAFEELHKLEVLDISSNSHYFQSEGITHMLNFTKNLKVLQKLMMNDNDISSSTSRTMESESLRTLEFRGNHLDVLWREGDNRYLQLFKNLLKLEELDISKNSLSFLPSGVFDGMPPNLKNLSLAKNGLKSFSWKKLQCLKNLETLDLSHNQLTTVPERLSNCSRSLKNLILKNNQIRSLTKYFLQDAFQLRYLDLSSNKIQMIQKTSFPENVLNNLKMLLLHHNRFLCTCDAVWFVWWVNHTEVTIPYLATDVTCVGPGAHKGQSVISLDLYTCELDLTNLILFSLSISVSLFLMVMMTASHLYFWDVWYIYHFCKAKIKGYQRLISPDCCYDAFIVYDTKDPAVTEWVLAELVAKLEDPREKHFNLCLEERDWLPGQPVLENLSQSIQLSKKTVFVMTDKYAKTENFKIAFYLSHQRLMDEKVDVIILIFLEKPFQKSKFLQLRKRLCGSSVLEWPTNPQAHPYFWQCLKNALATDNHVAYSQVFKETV
How it was run: (§1)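 Dose–response from 0.05 nM to 50 μM was run in HEK-Blue human TLR7, TLR8 and TLR9 reporter cells. After 30 min at room temperature with compound, ligand was added (TLR7 gardiquimod 7.5 μM; TLR8 R848 15.9 μM; TLR9 ODN2006 5 nM) and SEAP measured next day, at 22 h.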

human TLR8 = molecular target: T2, human TLR8 (Homo sapiens, UniProt Q9NR97); assay: TLR8 inhibition reporter assay (HEK-Blue SEAP reporter, R848 stimulation); details: HEK-Blue cells overexpressing human TLR8, SEAP reporter, R848 15.9 μM, 22 hour incubation
T2 construct: host or cells: HEK-Blue cells
T2 sequence (Q9NR97 27-1041): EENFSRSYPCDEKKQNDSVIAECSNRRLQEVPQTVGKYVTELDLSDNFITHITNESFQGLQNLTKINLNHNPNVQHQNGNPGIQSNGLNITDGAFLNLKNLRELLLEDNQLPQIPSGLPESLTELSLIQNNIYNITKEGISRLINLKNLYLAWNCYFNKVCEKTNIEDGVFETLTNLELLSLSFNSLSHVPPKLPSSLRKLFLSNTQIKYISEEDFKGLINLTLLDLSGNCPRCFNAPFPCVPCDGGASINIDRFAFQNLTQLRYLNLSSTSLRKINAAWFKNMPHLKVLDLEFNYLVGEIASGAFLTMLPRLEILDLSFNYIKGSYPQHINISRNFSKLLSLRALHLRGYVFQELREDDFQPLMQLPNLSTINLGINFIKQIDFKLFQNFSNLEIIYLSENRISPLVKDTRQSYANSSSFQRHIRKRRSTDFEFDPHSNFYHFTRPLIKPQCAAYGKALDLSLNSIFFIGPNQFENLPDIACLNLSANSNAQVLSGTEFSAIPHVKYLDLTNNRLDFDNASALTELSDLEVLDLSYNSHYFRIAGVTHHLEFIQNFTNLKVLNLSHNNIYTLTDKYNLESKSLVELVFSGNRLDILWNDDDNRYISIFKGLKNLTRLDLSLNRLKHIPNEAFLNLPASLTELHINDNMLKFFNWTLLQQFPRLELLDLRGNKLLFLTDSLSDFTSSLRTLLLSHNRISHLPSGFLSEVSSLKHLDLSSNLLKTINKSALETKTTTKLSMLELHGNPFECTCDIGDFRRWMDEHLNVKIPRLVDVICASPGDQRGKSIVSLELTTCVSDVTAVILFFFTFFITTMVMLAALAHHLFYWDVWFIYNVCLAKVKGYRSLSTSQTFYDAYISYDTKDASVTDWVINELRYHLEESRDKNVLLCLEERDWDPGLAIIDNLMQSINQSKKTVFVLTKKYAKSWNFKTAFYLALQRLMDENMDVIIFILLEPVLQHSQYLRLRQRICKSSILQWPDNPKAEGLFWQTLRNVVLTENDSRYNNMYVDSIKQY
How it was run: as §1

human TLR9 = molecular target: T3, human TLR9 (Homo sapiens, UniProt Q9NR96); assay: TLR9 inhibition reporter assay (HEK-Blue SEAP reporter, ODN2006 stimulation); details: HEK-Blue cells overexpressing human TLR9, SEAP reporter, ODN2006 5 nM, 22 hour incubation
T3 construct: host or cells: HEK-Blue cells
T3 sequence (Q9NR96 26-1032): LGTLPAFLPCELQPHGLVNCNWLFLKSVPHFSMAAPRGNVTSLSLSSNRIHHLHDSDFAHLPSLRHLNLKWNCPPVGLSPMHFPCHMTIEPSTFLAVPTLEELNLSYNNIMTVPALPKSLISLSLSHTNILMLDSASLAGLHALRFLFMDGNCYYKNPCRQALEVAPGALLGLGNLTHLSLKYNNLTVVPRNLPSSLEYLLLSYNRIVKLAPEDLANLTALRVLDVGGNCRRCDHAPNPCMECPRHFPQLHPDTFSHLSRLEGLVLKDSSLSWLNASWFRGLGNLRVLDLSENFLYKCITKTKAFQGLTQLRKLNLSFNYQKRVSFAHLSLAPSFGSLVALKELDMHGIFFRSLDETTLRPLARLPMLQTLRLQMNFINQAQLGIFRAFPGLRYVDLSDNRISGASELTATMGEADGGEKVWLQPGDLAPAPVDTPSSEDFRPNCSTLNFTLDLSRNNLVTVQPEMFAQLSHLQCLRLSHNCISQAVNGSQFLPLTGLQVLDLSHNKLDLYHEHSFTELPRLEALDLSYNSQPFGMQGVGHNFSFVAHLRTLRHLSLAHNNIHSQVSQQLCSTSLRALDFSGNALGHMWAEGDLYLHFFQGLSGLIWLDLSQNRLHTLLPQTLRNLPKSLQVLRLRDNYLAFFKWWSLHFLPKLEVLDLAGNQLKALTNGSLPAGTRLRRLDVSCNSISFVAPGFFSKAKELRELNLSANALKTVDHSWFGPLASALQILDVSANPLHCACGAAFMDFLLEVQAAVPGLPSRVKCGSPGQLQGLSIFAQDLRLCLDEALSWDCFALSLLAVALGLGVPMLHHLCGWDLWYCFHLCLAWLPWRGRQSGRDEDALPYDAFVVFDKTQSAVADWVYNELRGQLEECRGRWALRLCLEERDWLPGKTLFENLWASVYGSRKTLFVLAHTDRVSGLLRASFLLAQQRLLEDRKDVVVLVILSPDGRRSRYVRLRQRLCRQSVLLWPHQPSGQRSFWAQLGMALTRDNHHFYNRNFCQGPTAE
How it was run: as §1

IC50 (human TLR7) | IC50 (human TLR8) | IC50 (human TLR9) | Compound
4.3 nM | 2.2 nM | 3740 nM | Cc1cc(-c2[nH]c3ccc(C4CCN(CC5=NN=CC5)CC4)cc3c2C(C)C)cn(C)c1=O [Example 200, 5-(5-(1-((4H-pyrazol-3-yl)methyl)piperidin-4-yl)-3-isopropyl-1H-indol-2-yl)-1,3-dimethylpyridin-2(1H)-one]
4 nM | 4.4 nM | 959 nM | COc1cc(-c2[nH]c3ccc(C4CCN(C5CCOCC5)CC4)cc3c2C(C)C)cn(C)c1=O [Example 201, 5-(3-isopropyl-5-(1-(tetrahydro-2H-pyran-4-yl)piperidin-4-yl)-1H-indol-2-yl)-3-methoxy-1-methylpyridin-2(1H)-one]
11.3 nM | 13.5 nM | 5630 nM | COc1cc(-c2[nH]c3ccc(C4CCN(C5COC5)CC4)cc3c2C(C)C)cn(C)c1=O [Example 202, 5-(3-isopropyl-5-(1-(oxetan-3-yl)piperidin-4-yl)-1H-indol-2-yl)-3-methoxy-1-methylpyridin-2(1H)-one]
272 nM | 28.7 nM | 16900 nM | Cc1c(-c2[nH]c3ccc(C4CCN(C5COC5)CC4)cc3c2C(C)C)nn(C)c(=O)c1C [Example 203, 6-(3-isopropyl-5-(1-(oxetan-3-yl)piperidin-4-yl)-1H-indol-2-yl)-2,4,5-trimethylpyridazin-3(2H)-one]
14.6 nM | 18 nM | ≥ 50000 nM | CCn1cc(-c2[nH]c3ccc(C4CCN(C5COC5)CC4)cc3c2C(C)C)cc(C)c1=O [Example 204, 1-ethyl-5-(3-isopropyl-5-(1-(oxetan-3-yl)piperidin-4-yl)-1H-indol-2-yl)-3-methylpyridin-2(1H)-one]
501 nM | 19.8 nM | 8710 nM | Cc1c(-c2[nH]c3ccc(C4CCN(C5CCOCC5)CC4)cc3c2C(C)C)nn(C)c(=O)c1C [Example 205, 6-(3-isopropyl-5-(1-(tetrahydro-2H-pyran-4-yl)piperidin-4-yl)-1H-indol-2-yl)-2,4,5-trimethylpyridazin-3(2H)-one]
18.9 nM | 2.6 nM | 4490 nM | Cc1c(-c2[nH]c3ccc(C4CCN(C5CCOCC5)CC4)cc3c2C(C)C)cn(C)c(=O)c1C [Example 206, 5-(3-isopropyl-5-(1-(tetrahydro-2H-pyran-4-yl)piperidin-4-yl)-1H-indol-2-yl)-1,3,4-trimethylpyridin-2(1H)-one]
20.8 nM | 11.7 nM | 46800 nM | Cc1c(-c2[nH]c3ccc(C4CCN(C5COC5)CC4)cc3c2C(C)C)cn(C)c(=O)c1C [Example 207, 5-(3-isopropyl-5-(1-(oxetan-3-yl)piperidin-4-yl)-1H-indol-2-yl)-1,3,4-trimethylpyridin-2(1H)-one]
31.1 nM | 7 nM | 3110 nM | CCn1cc(-c2[nH]c3ccc(C4CCN(C5CCOCC5)CC4)cc3c2C(C)C)c(C)c(C)c1=O [Example 208, 1-ethyl-5-(3-isopropyl-5-(1-(tetrahydro-2H-pyran-4-yl)piperidin-4-yl)-1H-indol-2-yl)-3,4-dimethylpyridin-2(1H)-one]
34.3 nM | 18 nM | 17500 nM | CCn1cc(-c2[nH]c3ccc(C4CCN(C5COC5)CC4)cc3c2C(C)C)c(C)c(C)c1=O [Example 209, 1-ethyl-5-(3-isopropyl-5-(1-(oxetan-3-yl)piperidin-4-yl)-1H-indol-2-yl)-3,4-dimethylpyridin-2(1H)-one]
24.7 nM | 2.7 nM | 5030 nM | Cc1cc(-c2[nH]c3ccc(C4CCN(C5CCOCC5)CC4)cc3c2C(C)C)c(C)n(C)c1=O [Example 210, 5-(3-isopropyl-5-(1-(tetrahydro-2H-pyran-4-yl)piperidin-4-yl)-1H-indol-2-yl)-1,3,6-trimethylpyridin-2(1H)-one]
34.6 nM | 17.1 nM | ≥ 50000 nM | Cc1cc(-c2[nH]c3ccc(C4CCN(C5COC5)CC4)cc3c2C(C)C)c(C)n(C)c1=O [Example 211, 5-(3-isopropyl-5-(1-(oxetan-3-yl)piperidin-4-yl)-1H-indol-2-yl)-1,3,6-trimethylpyridin-2(1H)-one]
17.1 nM | 17.4 nM | 12600 nM | Cc1c(-c2[nH]c3ccc(C4CCN(C(C)C)CC4)cc3c2C(C)C)cn(C)c(=O)c1C [Example 212, 5-(3-isopropyl-5-(1-isopropylpiperidin-4-yl)-1H-indol-2-yl)-1,3,4-trimethylpyridin-2(1H)-one]
15.6 nM | 16.5 nM | 2910 nM | CCn1cc(-c2[nH]c3ccc(C4CCN(C(C)C)CC4)cc3c2C(C)C)c(C)c(C)c1=O [Example 213, 1-ethyl-5-(3-isopropyl-5-(1-isopropylpiperidin-4-yl)-1H-indol-2-yl)-3,4-dimethylpyridin-2(1H)-one]
